Measured values as given in ChEMBL document CHEMBL1201862, “PubChem BioAssay data set” (2004).
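Compound exposure: 48 hours, 5 concentrations, 96-well plates. At the GI50, growth is halved.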 Calls of active or inactive are those of the source. Cut-off read from the data, not from the text of the source: active = GI50 up to about 1.1 µM and inactive = higher.

Key:
Assay in all cases: DTP human tumour cell line panel, 48 h
UACC-62 = test system: UACC-62
786-0 = test system: 786-0
SN12C = test system: SN12C
HL-60 = test system: HL-60
SK-MEL-5 = test system: SK-MEL-5
M14 = test system: M14
HOP-62 = test system: HOP-62
HCC 2998 = test system: HCC 2998
LOX IMVI = test system: LOX IMVI
SK-MEL-2 = test system: SK-MEL-2
SF-539 = test system: SF-539
MOLT-4 = test system: MOLT-4
RXF 393 = test system: RXF 393
MDA-MB-435 = test system: MDA-MB-435
IGROV-1 = test system: IGROV-1
Hs-578T = test system: Hs-578T
SK-MEL-28 = test system: SK-MEL-28
HCT-15 = test system: HCT-15
NCI-H522 = test system: NCI-H522
SNB-75 = test system: SNB-75

Compound	GI50 (UACC-62)	GI50 (786-0)	GI50 (SN12C)	GI50 (HL-60)	GI50 (SK-MEL-5)	GI50 (M14)	GI50 (HOP-62)	GI50 (HCC 2998)	GI50 (LOX IMVI)	GI50 (SK-MEL-2)	GI50 (SF-539)	GI50 (MOLT-4)	GI50 (RXF 393)	GI50 (MDA-MB-435)	GI50 (IGROV-1)	GI50 (Hs-578T)	GI50 (SK-MEL-28)	GI50 (HCT-15) [µM]	GI50 (NCI-H522)	GI50 (SNB-75)
CCOC(=O)Nc1ccc(S(=O)(=O)Nn2cnnc2)cc1	33.8 µM (inactive)	46.5 µM (inactive)	53.1 µM (inactive)	38 µM (inactive)	23.9 µM (inactive)	43 µM (inactive)	51.6 µM (inactive)	33.8 µM (inactive)	69.3 µM (inactive)	72.6 µM (inactive)	22.4 µM (inactive)	50.7 µM (inactive)	> 100 µM (inactive)	16.4 µM (inactive)	40.7 µM (inactive)	57.9 µM (inactive)	42.8 µM (inactive)	50.1	48.1 µM (inactive)	
CCCCn1cnc2c(c(CC#N)nn2-c2ccccc2)c1=N	20.2 µM (inactive)	57.1 µM (inactive)	70.8 µM (inactive)	34 µM (inactive)	20.9 µM (inactive)	53.2 µM (inactive)	> 100 µM (inactive)	37.1 µM (inactive)	39.3 µM (inactive)	23.7 µM (inactive)		33.1 µM (inactive)	70.1 µM (inactive)	32.3 µM (inactive)	68.9 µM (inactive)	39.9 µM (inactive)	44.1 µM (inactive)	36.8	43.1 µM (inactive)	45.6 µM (inactive)
CC1=C(Br)C(=O)C(C)=C(Br)C1=O.Cc1c(O)c(Br)c(C)c(O)c1Br	5.55 µM (inactive)	1.77 µM (inactive)	1.8 µM (inactive)	1.12 µM (active)	4.22 µM (inactive)	1.67 µM (inactive)	12 µM (inactive)		1.87 µM (inactive)	3.53 µM (inactive)	4.78 µM (inactive)	0.783 µM (active)	1.88 µM (inactive)	1.89 µM (inactive)	7.83 µM (inactive)	5.92 µM (inactive)	1.91 µM (inactive)	2.07	1.99 µM (inactive)	14.2 µM (inactive)
COc1cc2c(c(OC)c1OC)-c1ccc(SC)c(=O)cc1[C@@H](O)CC2	0.000469 µM (active)	0.000834 µM (active)	0.00265 µM (active)	0.000269 µM (active)		0.000333 µM (active)	0.000834 µM (active)	0.00122 µM (active)	0.00078 µM (active)	0.00367 µM (active)	0.000356 µM (active)	0.00108 µM (active)	0.000317 µM (active)	0.000122 µM (active)	0.00067 µM (active)	0.000261 µM (active)	0.0222 µM (active)	0.000605	0.00065 µM (active)	0.01 µM (active)
Cc1cc(C)c2cc(N)c(Cl)nc2n1	> 100 µM (inactive)	> 100 µM (inactive)	> 100 µM (inactive)	> 100 µM (inactive)	> 100 µM (inactive)	> 100 µM (inactive)				> 100 µM (inactive)	> 100 µM (inactive)		> 100 µM (inactive)	> 100 µM (inactive)	> 100 µM (inactive)	> 100 µM (inactive)		60.5	18.7 µM (inactive)	> 100 µM (inactive)
C#CCNC(CSSCC(N)C(=O)O)C(=O)O (stereo unspecified)	> 100 µM (inactive)	> 100 µM (inactive)			> 100 µM (inactive)	> 100 µM (inactive)	> 100 µM (inactive)	> 100 µM (inactive)		> 100 µM (inactive)	> 100 µM (inactive)	> 100 µM (inactive)	> 100 µM (inactive)	> 100 µM (inactive)	> 100 µM (inactive)	> 100 µM (inactive)	> 100 µM (inactive)	> 100	> 100 µM (inactive)	> 100 µM (inactive)
Cc1ccc(CSC(=N)Nc2ccccc2)cc1C	13.1 µM (inactive)	19.3 µM (inactive)	18.9 µM (inactive)	30.3 µM (inactive)	16.1 µM (inactive)	19.1 µM (inactive)	23.7 µM (inactive)		18.9 µM (inactive)	16.7 µM (inactive)	22.9 µM (inactive)	24.2 µM (inactive)	15.7 µM (inactive)	15.2 µM (inactive)	23.2 µM (inactive)	23.2 µM (inactive)	24.7 µM (inactive)	23.5	15.8 µM (inactive)	25.8 µM (inactive)
C[N+](C)(C)c1ncnc2c1ncn2C1CCCCO1 (stereo unspecified)	> 100 µM (inactive)	> 100 µM (inactive)	> 100 µM (inactive)	> 100 µM (inactive)	> 100 µM (inactive)	> 100 µM (inactive)	> 100 µM (inactive)		> 100 µM (inactive)	> 100 µM (inactive)		> 100 µM (inactive)	> 100 µM (inactive)	> 100 µM (inactive)	> 100 µM (inactive)	> 100 µM (inactive)	> 100 µM (inactive)		> 100 µM (inactive)	> 100 µM (inactive)
NC(=O)[N+](=CC(=S)Nc1ccccc1Cl)C(N)=O	> 100 µM (inactive)	> 100 µM (inactive)	> 100 µM (inactive)	> 100 µM (inactive)	> 100 µM (inactive)	> 100 µM (inactive)	> 100 µM (inactive)	> 100 µM (inactive)	> 100 µM (inactive)	> 100 µM (inactive)	> 100 µM (inactive)	> 100 µM (inactive)	> 100 µM (inactive)	> 100 µM (inactive)	> 100 µM (inactive)	> 100 µM (inactive)		> 100	> 100 µM (inactive)	
CCOC(=O)CC(C)C(C#N)(OP1(=O)OC(c2ccccc2)C(C)N1C)c1ccccc1 (stereo unspecified)	58.7 µM (inactive)	77.8 µM (inactive)	58.9 µM (inactive)	34.9 µM (inactive)	47.6 µM (inactive)	68.5 µM (inactive)	> 100 µM (inactive)	36 µM (inactive)	55.3 µM (inactive)	34.1 µM (inactive)	> 100 µM (inactive)	28.8 µM (inactive)	67.5 µM (inactive)	61 µM (inactive)	55.2 µM (inactive)	83.6 µM (inactive)	81.7 µM (inactive)	43.7	62.5 µM (inactive)	
CC(=O)NCCc1c(-c2[nH]c3ccccc3c2CCNC(C)=O)[nH]c2ccccc12	> 100 µM (inactive)	35.7 µM (inactive)	> 100 µM (inactive)		> 100 µM (inactive)		85.7 µM (inactive)	> 100 µM (inactive)	> 100 µM (inactive)	> 100 µM (inactive)	74.5 µM (inactive)	> 100 µM (inactive)	> 100 µM (inactive)	> 100 µM (inactive)	24.6 µM (inactive)	40.1 µM (inactive)	> 100 µM (inactive)	> 100		47.6 µM (inactive)
Cc1cc(=O)nc(S(=O)(=O)NC(=O)Nc2cccc(Cl)c2)[nH]1	> 100 µM (inactive)	> 100 µM (inactive)	> 100 µM (inactive)		> 100 µM (inactive)	> 100 µM (inactive)	> 100 µM (inactive)	> 100 µM (inactive)	> 100 µM (inactive)	> 100 µM (inactive)	> 100 µM (inactive)	32.7 µM (inactive)	> 71.4 µM (inactive)	> 33.5 µM (inactive)	> 100 µM (inactive)	> 100 µM (inactive)	> 100 µM (inactive)	> 100	> 100 µM (inactive)	49.4 µM (inactive)
CSc1c(C#N)c(O)n(-c2ccc(Cl)cc2)c(=O)c1C(C)=O	69.3 µM (inactive)	37.7 µM (inactive)	> 100 µM (inactive)	18.4 µM (inactive)	89.1 µM (inactive)	89.9 µM (inactive)		> 100 µM (inactive)	34.4 µM (inactive)	> 100 µM (inactive)	32.9 µM (inactive)	23 µM (inactive)	33.6 µM (inactive)	88.3 µM (inactive)		> 100 µM (inactive)	> 100 µM (inactive)	27.3	0.433 µM (active)	94.8 µM (inactive)
O=C1N/C(=N\C2CCCCC2)C2(CCN(CCCC3(c4ccc(F)cc4)OCCO3)CC2)N1c1ccccc1	> 10 µM (inactive)	16.6 µM (inactive)	20.4 µM (inactive)	11.7 µM (inactive)	15 µM (inactive)	19.4 µM (inactive)	17.5 µM (inactive)		22.8 µM (inactive)	16 µM (inactive)	17 µM (inactive)	15.1 µM (inactive)	17.3 µM (inactive)	19.1 µM (inactive)		14.4 µM (inactive)	18.6 µM (inactive)	18.1	14.9 µM (inactive)	14.3 µM (inactive)
CCOC(=O)c1ccc(Nc2cnc3ccc(C(F)(F)F)cc3n2)cc1	13.6 µM (inactive)	13.9 µM (inactive)	13.9 µM (inactive)	15.9 µM (inactive)	15.5 µM (inactive)	22.7 µM (inactive)	20.6 µM (inactive)	12.9 µM (inactive)	15.8 µM (inactive)	15.1 µM (inactive)	28.1 µM (inactive)	3.63 µM (inactive)	8.18 µM (inactive)	21.5 µM (inactive)	15 µM (inactive)	17.4 µM (inactive)	15.8 µM (inactive)	14.8		17.9 µM (inactive)
CCC/C(Cl)=N\OC(=O)Nc1ccc(F)cc1	13.6 µM (inactive)	6.5 µM (inactive)	16.7 µM (inactive)	1.87 µM (inactive)	13.3 µM (inactive)	14.6 µM (inactive)	19.2 µM (inactive)	17.6 µM (inactive)	4.15 µM (inactive)	18.2 µM (inactive)		2.47 µM (inactive)	18.4 µM (inactive)	16.5 µM (inactive)	17.3 µM (inactive)	41.5 µM (inactive)	18.5 µM (inactive)	5.82	1.87 µM (inactive)	> 42.7 µM (inactive)
